According to PMC6921407, “Novel coumarins active against Trypanosoma cruzi and toxicity assessment using the animal model Caenorhabditis elegans” (BMC Pharmacology & Toxicology, 2019):
Values joined by “and” are separate entries in the source; they are usually repeats but may differ in a detail not shown here. Equal values may be shown once. Read-outs that look alike come from different tables or passages of the source.

Columns and labels:
[1] = test system: Caenorhabditis elegans N2 (wild type); settings: L1 worms exposed 30 min, survival counted 24 hours after exposure
Experimental: The nematode strain used was N2 (wild type), originally obtained from the Caenorhabditis Genetics Center (University of Minnesota, Twin Cities, MN, USA), which was maintained on nematode growth medium (NGM) plates seeded with Escherichia coli OP50 at 20°C. Synchronization of C. elegans cultures at the first larval stage (L1) was achieved by washing off the gravid nematodes from the plates into the centrifuge tubes, which were lysed with a bleaching mixture (1% NaOCl; 0.25 M NaOH), followed by flotation on a sucrose solution 30% (m/v) to separate the eggs from the dissolved worms and bacterial debris. The eggs were washed with M9 buffer (0.02 M KH2PO4, 0.04 M Na2HPO4, 0.08 M NaCl, and 0.001 M MgSO4) and allowed to hatch overnight (16 hours) in NGM agar plates without bacteria. After 16 hours it was obtained worms at L1 stage. Then, 1.500 L1 worms were exposed for 30 minutes at 20°C, by constant agitation in a rotator, at crescent doses ranging from 25 to 100 mM of coumarins in a 0.5% NaCl liquid media. Stock solutions of coumarins were made in DMSO, therefore worms treated with 0.5% NaCl and 0.5% DMSO were used as controls. After exposure, worms were washed 3 times with 0.5% NaCl to remove the treatments. Finally, worms were transferred to NGM recovery plates inoculated with Escherichia coli (OP50) for posterior assays.
The LD50 of coumarins was determined in C. elegans after exposure. The worms were washed three times with NaCl buffer and placed on OP50-seeded NGM plates. The number of surviving worms on each plate was verified 24 hours after exposure. The lethality data was normalized with the controls and presented as a percentage. All the coumarins were tested in three independent experiments with each concentration tested in two replicates within each experiment.

[2] = test system: Trypanosoma cruzi epimastigotes (Tulahuen 2 strain); experiment: Anti-Trypanosoma cruzi activity: growth inhibition of epimastigotes (absorbance at 600 nm, day 5); format: cell-based; settings: T. cruzi epimastigotes; for IC50: read-out: IC50
Experimental: Trypanosoma cruzi epimastigotes (Tulahuen 2 strain) were grown at 28 °C in an axenic milieu (BHI-Tryptose) supplemented with 5% fetal bovine serum (FBS), as previously described. Cells from a 10-day-old culture (stationary phase) were inoculated into 50 mL of fresh culture milieu to give an initial concentration of 1 × 10^6 cells per mL. Cell growth was followed by measuring the absorbance of the culture at 600 nm every day. Before inoculation, the milieu was supplemented with a given amount of the coumarin from a freshly prepared stock solution in DMSO (25 mM). The final concentration of DMSO in the culture medium never exceeded 0.4%, and the control was run in the presence of 0.4% DMSO and in the absence of drugs. […] Nifurtimox (Nfx) was used as the reference trypanocidal drug. The percentage of growth inhibition (PGI) was calculated as follows: PGI (%) = {1 - [(Ap - A0p) / (Ac - A0c)]} × 100, where Ap = […] of the culture containing the studied compound at day 5; […] = […] of the culture containing the studied compound just after addition of the inocula (day 0); Ac = […] of the culture in the absence of the studied compound (control) at day 5; […] = […] in the absence of the studied compound at day 0. […] At day 5, the absorbance of the culture was measured and related to the control.

[3] = test system: Caenorhabditis elegans N2 (wild type); experiment: Body area (worm development) of C. elegans after acute exposure; format: in vivo; settings: 30 min exposure, measured 48 hours after exposure; tested 25 to 100 mM; ANOVA/Bonferroni
Experimental: For the evaluation of body area, 48 hours after exposure the adult worms (20 nematodes per treatment) were photographed and their body contour was measured. For this, the NGM plates were washed with distilled water and the resulting solution was transferred to a centrifuge tube, where the worm was allowed to settle, separating it from the bacteria in suspension. The process was repeated until the solution became clear. […] The pictures were acquired from 20 worms per treatment, which were manually contoured and measured with AxioVision software LE version 4.8.2.0 for Windows.

[4] = test system: Trypanosoma cruzi epimastigotes (Tulahuen 2 strain); parameters: method as in PMID 19811923; settings: in vitro, epimastigote form of T. cruzi; cited from earlier work
T. cruzi = test system: T. cruzi; parameters: method as in doi:10.1351/pac200173030617; settings: proposed mechanism glyceraldehyde 3-phosphate dehydrogenase inhibition; cited from earlier work
C. elegans = test system: C. elegans; parameters: method as in PMID 23727123; settings: for the worm; cited from earlier work
Trypanosoma cruzi = test system: Trypanosoma cruzi; parameters: method as in PMID 24340110; settings: cited from earlier work
[5] = Trypanosoma cruzi, TULAHUEN, 120 h

Compound	LD50 (DL50) [1]	IC50 [2] [µM]	IC50 [2, 5] [µM]	also measured
Cc1ccc2oc(=O)cc(CN(C)c3ccccc3)c2c1 [10g]	42.3 mM	8.9	< 10	
CCc1ccc2oc(=O)cc(CN(C)c3ccccc3)c2c1 [11g]	61.7 mM and 61.50 mM	< 10	8.2 ± 2.3	LD50 (DL50) ([1]; listed as LaSOM 231): 61.55 mM; GI (%) / percentage of growth inhibition (PGI) ([2]; test concentration not given): < 78.6%
CCc1ccc2oc(=O)cc(CN(C)c3ccc(Cl)cc3)c2c1 [11h]	73.4 mM and 70.81 mM	< 10	6.4 ± 1	concentrations with significant reduction of body area compared with the control [3]: 50000 µM
O=C(Cn1ccnc1[N+](=O)[O-])NCc1ccccc1 [Benznidazole]				IC50 compared with Nifurtimox [4]: very similar IC50 values
C=CC(C)(C)c1cc2cc3c(cc2oc1=O)O[C@H](C(C)(C)O)C3 [Chalepin]				IC50 (T. cruzi): 64 µM
CCCSc1ccc2nc(NC(=O)OC)[nH]c2c1 [albendazole]				EC50 (C. elegans): 18.4 µM
Soulamarin				IC50 (Trypanosoma cruzi): 210 µM
